{
  "source": "patent US12017996B2",
  "about": "“Substituted quinolines and formulations thereof” (JIANGSU MEDOLUTION LTD, priority 2021, dated 2024)",
  "format_in_all_cases": "physicochemical",
  "key": {"Dissociation constants": {"assay": "Dissociation constants", "source_text": "(§1) For example, Compound A is soluble in acetic acid and hydrochloric acid solution (0.1 M). […] Compound A's dissociation constants: pKa1 is 4.99; pKa2 is 10.26."}, "[1]": {"assay": "Solubility of Compound A in solvents", "source_text": "as §1"}, "[2]": {"assay": "Compatibility test of excipients (impurities over time)", "protocol": "Each of mannitol, sodium starch glycolate, hydroxpropyl cellulose and glyceryl behenate was individually mixed with Compound A. The resulting mixture was tested for the impurities over time under the following conditions: lumination 4500±500 Lux; high humidity at 90±5%; high temperature at 40±2° C.; and accelerated condition at humidity of 75±5% and temperature of 40±2° C. Testing were done at day 0, day 7 and day 14. The percentage of the total impurities and the SZMD4-Z8 impurity were recorded together with other data."}, "[3]": {"details": "high temperature 40±2° C., day 7"}, "[4]": {"details": "high temperature 40±2° C., day 14"}, "[5]": {"details": "lumination 4500±500 Lux, day 14"}},
  "data": [
    {"smiles": "C#Cc1cccc(Nc2c(C#N)cnc3cc(OCC)c(NC(=O)/C=C/CN(C)C)cc23)c1.O=C(O)/C=C\\C(=O)O", "note": "[Compound A, (E)-N-[3-cyano-7-ethoxy-4-(3-ethynylanilino)-6-quinolyl]-4-(dimethylamino)but-2-enamide maleate]", "values": [
      {"measurement": "dissociation constant pKa1", "setting": "Dissociation constants", "value": 4.99},
      {"measurement": "dissociation constant pKa2", "setting": "Dissociation constants", "value": 10.26},
      {"measurement": "solubility", "setting": "[1]; in acetic acid", "value": "soluble"},
      {"measurement": "solubility", "setting": "[1]; in acetonitrile", "value": "slightly soluble"},
      {"measurement": "solubility", "setting": "[1]; in ethanol", "value": "slightly soluble"},
      {"measurement": "solubility", "setting": "[1]; in hydrochloric acid solution (0.1 M)", "value": "soluble"},
      {"measurement": "solubility", "setting": "[1]; in n-propanol", "value": "hardly soluble"},
      {"measurement": "solubility", "setting": "[1]; in sodium hydroxide solution (0.1 M)", "value": "not soluble"},
      {"measurement": "solubility", "setting": "[1]; in water", "value": "extremely slightly soluble"},
      {"measurement": "SZMD4-Z8 impurity", "setting": "[2]; day 0", "value": 0.03, "unit": "%"},
      {"measurement": "Total Impurities", "setting": "[2]; day 0", "value": 0.29, "unit": "%"},
      {"measurement": "SZMD4-Z8 impurity", "setting": "[2]; high humidity 90±5%, day 7", "value": 0.04, "unit": "%"},
      {"measurement": "Total Impurities", "setting": "[2]; high humidity 90±5%, day 7", "value": 0.31, "unit": "%"},
      {"measurement": "SZMD4-Z8 impurity", "setting": "[2]; high humidity 90±5%, day 14", "value": 0.04, "unit": "%"},
      {"measurement": "Total Impurities", "setting": "[2]; high humidity 90±5%, day 14", "value": 0.30, "unit": "%"},
      {"measurement": "SZMD4-Z8 impurity", "setting": "[2]; [3]", "value": 0.03, "unit": "%"},
      {"measurement": "Total Impurities", "setting": "[2]; [3]", "value": 0.31, "unit": "%"},
      {"measurement": "SZMD4-Z8 impurity", "setting": "[2]; [4]", "value": 0.03, "unit": "%"},
      {"measurement": "Total Impurities", "setting": "[2]; [4]", "value": 0.30, "unit": "%"},
      {"measurement": "SZMD4-Z8 impurity", "setting": "[2]; lumination 4500±500 Lux, day 7", "value": 0.03, "unit": "%"},
      {"measurement": "Total Impurities", "setting": "[2]; lumination 4500±500 Lux, day 7", "value": 0.40, "unit": "%"},
      {"measurement": "SZMD4-Z8 impurity", "setting": "[2]; [5]", "value": 0.03, "unit": "%"},
      {"measurement": "Total Impurities", "setting": "[2]; [5]", "value": 0.44, "unit": "%%"}
    ]}
  ]
}
